Remaining activity, inhibition and IC50 data for five compounds are collected here from paper PMC5761851, “Application of a phenotypic drug discovery strategy to identify biological and chemical starting points for inhibition of TSLP production in lung epithelial cells” (PLoS ONE, 2018).

Common to all, as to experiment: kinase selectivity panel
Format in all cases: biochemical

One experiment addresses T1, CDK2/cyclinA (Homo sapiens, UniProt P24941).
T1 construct: purchased Eurofins Pharma Discovery Services (KinaseProfiler; Cerep BioPrint panel)
The following applies: read-out: percentage of control activity (POC), CDK2/cyclinA. A digest of the protocol: (§1)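 The compound is screened at 10 μM in duplicate against 125 representative kinases. Selected activities are followed up with a nine-concentration duplicate titration to give IC50.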

The target in the next experiment is T2, CK2α2 (Homo sapiens, UniProt P19784).
T2 construct: purchased Eurofins Pharma Discovery Services (KinaseProfiler; Cerep BioPrint panel)
T2 sequence (P19784 whole entry): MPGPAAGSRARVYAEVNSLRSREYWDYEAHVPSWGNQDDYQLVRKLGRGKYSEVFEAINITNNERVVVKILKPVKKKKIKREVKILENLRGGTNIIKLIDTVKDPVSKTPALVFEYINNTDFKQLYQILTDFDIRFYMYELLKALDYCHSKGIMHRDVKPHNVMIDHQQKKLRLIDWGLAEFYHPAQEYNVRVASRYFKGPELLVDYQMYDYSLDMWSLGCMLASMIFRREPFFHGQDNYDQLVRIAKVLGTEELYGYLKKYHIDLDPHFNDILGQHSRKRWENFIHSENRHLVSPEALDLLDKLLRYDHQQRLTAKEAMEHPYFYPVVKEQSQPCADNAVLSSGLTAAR
As to conditions: read-out: percentage of control activity (POC), CK2α2. A digest of the protocol: as §1

For another experiment, the target named is T3, DDR2 (Homo sapiens, UniProt Q16832).
T3 construct: purchased Eurofins Pharma Discovery Services (KinaseProfiler; Cerep BioPrint panel)
T3 sequence (Q16832 22-855): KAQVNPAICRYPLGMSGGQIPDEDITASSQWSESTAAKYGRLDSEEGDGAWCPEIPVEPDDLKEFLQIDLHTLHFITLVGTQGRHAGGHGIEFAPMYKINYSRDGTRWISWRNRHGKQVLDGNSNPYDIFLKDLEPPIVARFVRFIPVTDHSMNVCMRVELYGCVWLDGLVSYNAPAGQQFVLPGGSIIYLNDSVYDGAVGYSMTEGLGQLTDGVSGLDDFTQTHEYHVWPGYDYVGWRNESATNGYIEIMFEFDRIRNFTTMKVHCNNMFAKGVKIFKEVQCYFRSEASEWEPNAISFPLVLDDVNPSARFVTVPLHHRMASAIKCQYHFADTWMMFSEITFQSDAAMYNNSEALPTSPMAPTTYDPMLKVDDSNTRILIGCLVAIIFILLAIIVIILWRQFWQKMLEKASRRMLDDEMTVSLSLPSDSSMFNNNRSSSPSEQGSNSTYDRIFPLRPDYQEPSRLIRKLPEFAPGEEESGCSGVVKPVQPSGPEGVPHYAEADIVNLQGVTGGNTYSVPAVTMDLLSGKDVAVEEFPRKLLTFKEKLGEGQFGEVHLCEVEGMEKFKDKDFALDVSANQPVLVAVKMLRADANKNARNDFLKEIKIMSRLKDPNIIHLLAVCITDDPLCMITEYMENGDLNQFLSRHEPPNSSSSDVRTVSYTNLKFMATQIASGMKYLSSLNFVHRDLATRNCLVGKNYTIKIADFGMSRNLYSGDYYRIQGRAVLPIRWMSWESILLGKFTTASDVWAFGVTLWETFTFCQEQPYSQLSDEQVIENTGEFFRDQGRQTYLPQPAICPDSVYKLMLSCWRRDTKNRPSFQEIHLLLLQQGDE
The following applies: for remaining activity at 10 µM: read-out: percentage of control activity (POC), DDR2. In a few lines:
as §1

In a further experiment the target is T4, JAK2 (Homo sapiens, UniProt O60674).
T4 construct: purchased Eurofins Pharma Discovery Services (KinaseProfiler; Cerep BioPrint panel)
As to conditions: read-out: percentage of control activity (POC), JAK2. In a few lines:
as §1

The target in the next experiment is T5, NEK2 (Homo sapiens, UniProt P51955).
T5 construct: purchased Eurofins Pharma Discovery Services (KinaseProfiler; Cerep BioPrint panel)
T5 sequence (P51955 1-445): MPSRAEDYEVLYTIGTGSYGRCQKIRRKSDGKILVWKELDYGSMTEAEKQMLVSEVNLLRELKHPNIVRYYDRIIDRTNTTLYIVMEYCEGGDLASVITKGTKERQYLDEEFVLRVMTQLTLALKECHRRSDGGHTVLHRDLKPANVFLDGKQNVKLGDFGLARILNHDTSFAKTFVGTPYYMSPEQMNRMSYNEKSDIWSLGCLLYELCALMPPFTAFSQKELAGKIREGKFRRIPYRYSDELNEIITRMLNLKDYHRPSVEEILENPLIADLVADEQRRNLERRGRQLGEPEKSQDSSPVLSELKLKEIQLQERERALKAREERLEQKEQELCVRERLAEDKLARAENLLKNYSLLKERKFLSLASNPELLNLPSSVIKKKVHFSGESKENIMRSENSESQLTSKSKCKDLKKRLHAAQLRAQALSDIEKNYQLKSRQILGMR
The following applies: read-out: percentage of control activity (POC), NEK2. A digest of the protocol: as §1

Another experiment concerns the target T6, PAK2 (Homo sapiens, UniProt Q13177).
T6 construct: purchased Eurofins Pharma Discovery Services (KinaseProfiler; Cerep BioPrint panel)
As to conditions: read-out: percentage of control activity (POC), PAK2. In a few lines: as §1

The target of a further experiment is T7, PDGFRβ (Homo sapiens, UniProt P09619).
T7 construct: purchased Eurofins Pharma Discovery Services (KinaseProfiler; Cerep BioPrint panel)
As to conditions: read-out: percentage of control activity (POC), PDGFRβ. A digest of the protocol:
as §1

A further experiment deals with T8, PI3K (p110d/p85a) (Homo sapiens, UniProt O00329).
T8 construct: Eurofins Pharma Discovery Services (contract assay service)
T8 sequence (O00329 whole entry): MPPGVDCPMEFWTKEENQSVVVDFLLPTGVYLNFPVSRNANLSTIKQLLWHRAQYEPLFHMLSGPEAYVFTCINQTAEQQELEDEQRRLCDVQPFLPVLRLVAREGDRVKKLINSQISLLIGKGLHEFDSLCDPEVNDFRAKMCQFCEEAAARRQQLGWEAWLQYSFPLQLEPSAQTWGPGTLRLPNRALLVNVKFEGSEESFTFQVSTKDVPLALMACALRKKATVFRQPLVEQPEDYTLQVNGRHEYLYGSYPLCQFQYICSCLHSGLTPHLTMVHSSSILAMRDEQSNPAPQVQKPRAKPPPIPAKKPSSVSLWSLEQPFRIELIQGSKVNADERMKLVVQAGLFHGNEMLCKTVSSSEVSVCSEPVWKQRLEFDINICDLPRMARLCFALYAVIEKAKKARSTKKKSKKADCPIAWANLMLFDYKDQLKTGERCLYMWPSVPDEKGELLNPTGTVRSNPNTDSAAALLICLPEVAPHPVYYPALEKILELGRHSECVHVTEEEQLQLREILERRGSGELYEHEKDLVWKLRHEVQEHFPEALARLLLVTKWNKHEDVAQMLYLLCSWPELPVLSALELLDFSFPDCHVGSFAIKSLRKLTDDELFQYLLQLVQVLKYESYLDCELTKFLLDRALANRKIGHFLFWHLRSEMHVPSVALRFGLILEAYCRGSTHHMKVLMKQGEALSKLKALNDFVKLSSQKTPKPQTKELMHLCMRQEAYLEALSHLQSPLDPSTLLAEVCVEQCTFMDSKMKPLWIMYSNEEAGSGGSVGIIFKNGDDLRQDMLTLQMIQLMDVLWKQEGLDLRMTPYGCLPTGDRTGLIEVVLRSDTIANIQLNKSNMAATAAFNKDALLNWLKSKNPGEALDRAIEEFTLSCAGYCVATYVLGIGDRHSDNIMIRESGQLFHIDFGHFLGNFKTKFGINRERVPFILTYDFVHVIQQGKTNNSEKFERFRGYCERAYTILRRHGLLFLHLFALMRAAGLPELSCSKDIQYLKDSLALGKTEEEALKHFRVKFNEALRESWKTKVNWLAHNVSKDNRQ
T8 sequence (P27986 whole entry partner): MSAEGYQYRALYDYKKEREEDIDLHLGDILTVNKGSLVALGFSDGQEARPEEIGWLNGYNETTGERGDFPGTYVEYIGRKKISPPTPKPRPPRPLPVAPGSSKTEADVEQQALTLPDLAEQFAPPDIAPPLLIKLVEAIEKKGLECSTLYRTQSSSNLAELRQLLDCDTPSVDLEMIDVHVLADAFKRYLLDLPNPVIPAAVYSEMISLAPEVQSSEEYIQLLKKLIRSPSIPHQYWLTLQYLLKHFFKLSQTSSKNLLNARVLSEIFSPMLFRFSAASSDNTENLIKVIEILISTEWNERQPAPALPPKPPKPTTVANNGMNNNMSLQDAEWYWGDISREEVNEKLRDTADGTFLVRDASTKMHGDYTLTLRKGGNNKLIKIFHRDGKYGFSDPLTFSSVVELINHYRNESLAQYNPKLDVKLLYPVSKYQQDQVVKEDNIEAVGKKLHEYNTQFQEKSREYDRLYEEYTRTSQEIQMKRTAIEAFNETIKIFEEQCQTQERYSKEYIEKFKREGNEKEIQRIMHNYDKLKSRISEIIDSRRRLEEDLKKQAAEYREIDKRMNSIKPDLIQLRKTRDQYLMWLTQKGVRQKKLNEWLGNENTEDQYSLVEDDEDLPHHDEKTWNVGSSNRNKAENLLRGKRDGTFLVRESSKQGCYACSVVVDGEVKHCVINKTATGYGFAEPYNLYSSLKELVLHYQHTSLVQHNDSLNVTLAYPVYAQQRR
As to conditions: for remaining activity at 10 µM: read-out: percentage of control activity (POC), PI3K (p110d/p85a). In a few lines:
as §1

Another experiment addresses T9, PKCα (Homo sapiens, UniProt P17252).
T9 construct: purchased Eurofins Pharma Discovery Services (KinaseProfiler; Cerep BioPrint panel)
The following applies: read-out: percentage of control activity (POC), PKCα. A digest of the protocol: as §1

The target in another experiment is T10, PKG1α (Homo sapiens, UniProt Q13976).
T10 construct: purchased Eurofins Pharma Discovery Services (KinaseProfiler; Cerep BioPrint panel)
T10 sequence (Q13976 1-671): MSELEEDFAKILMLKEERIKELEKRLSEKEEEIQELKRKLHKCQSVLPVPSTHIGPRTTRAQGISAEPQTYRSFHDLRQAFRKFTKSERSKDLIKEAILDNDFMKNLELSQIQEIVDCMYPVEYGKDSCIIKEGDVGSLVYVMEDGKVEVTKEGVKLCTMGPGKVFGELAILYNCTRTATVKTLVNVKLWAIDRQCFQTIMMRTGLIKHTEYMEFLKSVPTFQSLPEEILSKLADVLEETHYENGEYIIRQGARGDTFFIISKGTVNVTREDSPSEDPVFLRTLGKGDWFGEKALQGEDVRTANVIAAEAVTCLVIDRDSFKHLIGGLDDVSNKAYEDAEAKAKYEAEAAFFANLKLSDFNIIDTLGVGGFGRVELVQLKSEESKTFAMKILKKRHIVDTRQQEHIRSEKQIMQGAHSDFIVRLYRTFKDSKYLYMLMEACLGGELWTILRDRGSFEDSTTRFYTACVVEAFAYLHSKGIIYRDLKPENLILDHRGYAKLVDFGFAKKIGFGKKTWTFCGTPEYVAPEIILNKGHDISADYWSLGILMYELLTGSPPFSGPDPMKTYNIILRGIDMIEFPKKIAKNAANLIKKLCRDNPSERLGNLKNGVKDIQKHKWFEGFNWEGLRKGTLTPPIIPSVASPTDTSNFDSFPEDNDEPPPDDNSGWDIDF
As to conditions: read-out: percentage of control activity (POC), PKG1α. In a few lines: as §1

The target of a further experiment is T11, Rsk3 (Homo sapiens, UniProt Q15349).
T11 construct: purchased Eurofins Pharma Discovery Services (KinaseProfiler; Cerep BioPrint panel)
T11 sequence (Q15349 whole entry): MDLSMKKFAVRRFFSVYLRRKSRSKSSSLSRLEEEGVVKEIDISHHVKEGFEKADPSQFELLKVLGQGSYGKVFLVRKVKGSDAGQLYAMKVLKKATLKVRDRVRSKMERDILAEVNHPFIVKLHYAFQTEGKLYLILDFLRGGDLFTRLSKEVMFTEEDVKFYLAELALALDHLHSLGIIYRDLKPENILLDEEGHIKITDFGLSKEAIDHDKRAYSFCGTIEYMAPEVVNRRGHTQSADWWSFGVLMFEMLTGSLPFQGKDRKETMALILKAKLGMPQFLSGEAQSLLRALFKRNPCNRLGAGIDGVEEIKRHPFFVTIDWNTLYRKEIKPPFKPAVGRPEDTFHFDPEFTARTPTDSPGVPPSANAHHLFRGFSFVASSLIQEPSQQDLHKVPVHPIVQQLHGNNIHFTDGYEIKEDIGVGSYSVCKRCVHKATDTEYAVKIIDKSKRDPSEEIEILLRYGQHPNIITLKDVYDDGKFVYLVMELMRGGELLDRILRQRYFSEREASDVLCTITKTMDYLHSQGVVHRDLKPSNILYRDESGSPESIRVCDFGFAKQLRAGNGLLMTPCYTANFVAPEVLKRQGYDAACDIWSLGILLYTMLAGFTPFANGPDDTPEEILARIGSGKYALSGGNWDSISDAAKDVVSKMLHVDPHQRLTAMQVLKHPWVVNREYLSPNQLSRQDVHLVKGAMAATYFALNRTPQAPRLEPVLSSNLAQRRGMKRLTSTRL
The following applies: read-out: percentage of control activity (POC), Rsk3. In a few lines:
as §1

T6 sequence (Q13177 whole entry): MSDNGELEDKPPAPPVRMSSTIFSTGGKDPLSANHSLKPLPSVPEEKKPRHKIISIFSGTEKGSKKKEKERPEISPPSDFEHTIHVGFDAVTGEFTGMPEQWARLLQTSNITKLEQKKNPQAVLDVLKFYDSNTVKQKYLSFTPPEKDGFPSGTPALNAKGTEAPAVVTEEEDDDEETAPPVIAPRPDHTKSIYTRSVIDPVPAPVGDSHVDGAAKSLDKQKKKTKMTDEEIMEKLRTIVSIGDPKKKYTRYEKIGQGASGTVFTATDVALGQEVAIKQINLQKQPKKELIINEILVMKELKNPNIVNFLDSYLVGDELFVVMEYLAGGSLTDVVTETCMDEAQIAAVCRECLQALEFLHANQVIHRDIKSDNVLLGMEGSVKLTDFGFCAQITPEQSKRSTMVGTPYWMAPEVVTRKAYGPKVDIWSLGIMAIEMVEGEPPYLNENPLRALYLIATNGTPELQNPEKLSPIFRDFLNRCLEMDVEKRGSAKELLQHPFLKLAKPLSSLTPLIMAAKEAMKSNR

With `Cn1cc(-c2cccc(-c3nc(C(=O)NC4C5CC6CC4CC(O)(C6)C5)c(N)nc3N)c2)cn1` (centres unmarked) [compound 4], the remaining activity at 10 µM on CDK2/cyclinA is 91%; on CK2α2, 105%; on DDR2, 47%; on JAK2, 88%; at NEK2, 85%; on PAK2, 87%. Further, the remaining activity at 10 µM at PDGFRβ is 63%; on PI3K (p110d/p85a) (10 μM), 21%; at PKCα it was 85%; at PKG1α, 97%; on Rsk3, 75%. For the same compound, the inhibition at 10 µM is 53% against DDR2 and 79% at PI3K (p110d/p85a) (10 μM, read-out: inhibition of PI3K (p110δ/p85α)). The IC50 on PI3K (p110d/p85a) (biochemical dose response, duplicate, read-out: Inhibition of indicated activity (IC50, μM): PI3K (p110δ/p85α)) turned out to be 0.233 µM.
On to `COc1c(NC(=O)c2ccc(C)c(-c3nnc4c(NCC(C)(C)C)nccn34)c2)cc(C(C)(C)C)cc1NS(C)(=O)=O` [compound 7, reference compound], for which the remaining activity at 10 µM on CDK2/cyclinA was 105%; at CK2α2, 114%; at DDR2, 3%; at JAK2, 104%; at NEK2 it was 95%; on PAK2, 96%. For the same compound, the remaining activity at 10 µM on PDGFRβ is 82%; at PI3K (p110d/p85a) (10 μM), 90%; at PKCα it was 102%; on PKG1α it was 105%; on Rsk3 it was 110%. In addition, the inhibition at 10 µM against DDR2 worked out at 97%.
Take `Cc1ccc(C(=O)NCC2CC2)cc1-c1ccc2c(c1)NC(=O)C21CCCC1` [compound 3]: the remaining activity at 10 µM at CDK2/cyclinA was determined as 101%; at CK2α2 it was 108%; at DDR2 it was 71%; on JAK2, 108%; on NEK2, 99%; at PAK2 it was 89%. In addition, the remaining activity at 10 µM at PDGFRβ was found to be 61%; at PI3K (p110d/p85a) (10 μM), 90%; at PKCα, 95%; on PKG1α, 102%; at Rsk3 it was 102%.
With `CC(C)(C)N1CCC(c2cc(-c3ccc(F)cc3Cl)c3cc[n+]([O-])c(-c4c(Cl)cccc4Cl)c3n2)CC1` [compound 2], the remaining activity at 10 µM on CDK2/cyclinA was 105%; at CK2α2, 105%; on DDR2, 94%; on JAK2, 105%; at NEK2, 100%; at PAK2 it was 111%. Besides, the remaining activity at 10 µM at PDGFRβ stood at 70%; at PI3K (p110d/p85a) (10 μM), 93%; on PKCα it was 106%; at PKG1α, 108%; at Rsk3 it was 99%.
In the case of `CS(=O)(=O)N1CCN(c2ccc(Nc3ncc(C(N)=O)c(NC4CC4)n3)cc2)CC1` [compound 5], the remaining activity at 10 µM on CDK2/cyclinA was 78%; at CK2α2 it was 43%; at DDR2, 28%; on JAK2 it was -3%; on NEK2, 4%; at PAK2, 24%. Further, the remaining activity at 10 µM at PDGFRβ worked out at 16%; on PI3K (p110d/p85a) (10 μM) it was 90%; on PKCα, 38%; at PKG1α, 66%; at Rsk3, 0%.
